Experimental data as given in PubChem BioAssay AID179 (DTP/NCI, 2004).
Active and inactive are the calls of the source.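 The calls were made as follows: active = compounds giving half or more protection of infected cells from virus-caused growth loss, again on retest; inactive = the rest.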 *1 amine or outer side, *2 acyl side, *3 side chain or, on linkers, in order; H or OH if unused. Where a SMILES comes first, the peptide text is derived from it. [ ]: non-standard residue; d: D form. The star is where a group is joined. X3 = CC(=O)N(C)SCC(N[*:1])C(=O)[*:2]; X20 = CC(=O)N(C)SCC(N*)/C(O)=N\O; Cbz = O=C(OCc1ccccc1)*; Bn = c1ccc(C*)cc1; For = O=C*

Test system: CEM cells HIV-1 protection, formazan growth assay
Assay: NCI AIDS Antiviral Assay
Details: for IC50: measured here: growth of uninfected CEM cells
Summary of the method: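 Steps: treat uninfected and HIV-1-infected human CEM cells at five drug levels; quantify growth by soluble formazan; retest any compound reaching 50% protection; classify actives from the retest.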

Compound: CSc1nnc(CCC(=O)Nc2c(C)cccc2C)o1
- EC50: > 309 µM
- IC50: > 309 µM

Compound: CCCCCCCCCCCCCCCCCC(=O)OC[C@H](COP(=O)(O)OCCNC(=O)CCC(=O)O)OC(=O)CCCCCCCCCCCCCCCCC
- EC50: > 50.1 µM
- IC50: > 50.1 µM

Compound: CC(CCC(=O)O)(CCC(=O)O)[N+](=O)[O-]
- EC50: > 1150 µM
- IC50: > 1150 µM

Compound: O=C1NC2(CCCCC2)NC12CCCCC2
- EC50: > 135 µM
- IC50: > 135 µM

Compound: CC(=O)O[C@]1(C)OC(=O)[C@@H](C)N1[N+](=O)[O-]
- outcome: inactive

Compound: COc1ccc2ccc3c(c2c1)CN1CCc2cc(OC)c(OC)cc2C1C3 (centres undefined)
- outcome: inactive

Compound: CC(=O)N1N=C(C)C2ON=C(c3ccc(Cl)cc3)P21 (centres undefined)
- outcome: inactive

Compound: COC1=C(c2c[nH]c3ccc(CC=C(C)C)cc23)C(=O)C(OC)=C(c2c[nH]c3ccc(CC=C(C)C)cc23)C1=O
- EC50: > 38.9 µM
- IC50: 2.24 µM

Compound: Cc1ccc2c(c1N)C(=O)c1ccccc1C2=O
- EC50: > 200 µM
- IC50: 123 µM

Compound: CCOC(=O)C1=C(C)OC(=O)[C@@]2(OC)C=C(Cl)[C@@]12C
- EC50: > 200 µM
- IC50: > 200 µM

Compound: COc1cc(OC)c(-n2[nH]c(=O)n(C)c2=O)c(OC)c1
- EC50: > 200 µM
- IC50: > 200 µM

Compound: Cc1cc(C)nc(NS(=O)(=O)c2ccc(NNC(=O)c3cccc4c(NNc5ccc(S(=O)(=O)Nc6nc(C)cc(C)n6)cc5)c5ccccc5nc34)cc2)n1
- EC50: > 200 µM
- IC50: 21.9 µM

Compound: COc1cc(/C=C(\C#N)c2ccc(Cl)cc2)ccc1OCc1ccccc1
- EC50: > 200 µM
- IC50: > 200 µM

Compound: COc1ccc(/C=C2\N=C(SC)N(CN3CCOCC3)C2=O)cc1
- EC50: > 200 µM
- IC50: 29.5 µM

Compound: S=c1sc(-c2ccc(Cl)cc2)nn1CSc1nc2ccccc2[nH]1
- EC50: > 200 µM
- IC50: 31.6 µM

Compound: Cc1ccc([P+](Cc2ccccc2)(c2ccccc2)c2ccc(C)cc2)cc1
- EC50: > 200 µM
- IC50: 0.741 µM

Compound: CCOP(=O)(OCC)/C(=C\n1c(=S)[nH]c2cc(C)ccc21)C(=O)OC
- EC50: > 200 µM
- IC50: > 200 µM

Compound: CCOC(=O)C1=C(O)c2ccc(OC)cc2C(=O)C1=O
- EC50: > 339 µM
- IC50: 204 µM

Compound: Cc1ccc(S(=O)(=O)ON2C(=O)c3cccc4cc([N+](=O)[O-])cc(c34)C2=O)cc1
- EC50: > 63.1 µM
- IC50: > 63.1 µM

Compound: Clc1ccc(SCCCCCCCCCCSc2ccc(Cl)cc2)cc1
- EC50: > 23.4 µM
- IC50: > 23.4 µM

Compound: O=C(Nc1nc2ccsc2s1)c1ccccc1
- EC50: > 501 µM
- IC50: > 501 µM

Compound: COC(=O)c1c(C(=O)OC)c2c(-c3ccccc3)cc3cccc1n32
- EC50: > 8.13 µM
- IC50: > 8.13 µM

Compound: C[C@H]1S[C@@H](c2ccc(Cl)cc2Cl)N(NC(=O)c2ccncc2)C1=O
- EC50: > 200 µM
- IC50: 74.1 µM

Compound: C[C@]12CC[C@@H]3c4cc(OCC(F)(F)F)c(O)cc4CC[C@H]3[C@@H]1CC[C@@H]2O
- EC50: > 0.2 µM
- IC50: 0.0676 µM

Compound: O=C(O)CCNc1ccc2c(c1)B(O)OC2
- EC50: > 692 µM
- IC50: > 692 µM

Compound: C[C@]12C[C@@H](c3ccccc3)Nc3ccccc3N1C(c1ccccc1)=NO2
- EC50: > 200 µM
- IC50: 30.9 µM

Compound: COC(=O)C(CC(=O)Nc1ccc(Cl)c(Cl)c1)C(=O)C(=O)NC1C2CC3CC(C2)CC1C3 (centres undefined)
- EC50: > 70.8 µM
- IC50: > 70.8 µM

Compound: Cc1cc2ccccc2n1CC(=O)NCC(C)C
- EC50: > 200 µM
- IC50: > 200 µM

Compound: O=C(NCCCl)c1cc(C(F)(F)F)cc(C(F)(F)F)c1
- outcome: inactive

Compound: CC(=O)N[C@@H]1C(O)CN2C(=O)C(=O)O[C@H](C(O)CO)[C@@H]12 (some centres undefined)
- outcome: inactive

Compound: COc1ccc(C2SC(N)=Nc3c2c(C)nn3C(=O)c2ccc(Cl)cc2)cc1OC (centres undefined)
- EC50: > 200 µM
- IC50: > 200 µM

Compound: COc1ccc(NC(=O)CC/C(CC(=O)c2ccco2)=N/Nc2ccc([N+](=O)[O-])cc2[N+](=O)[O-])cc1
- EC50: > 52.5 µM
- IC50: 30.9 µM

Compound: CN(C)C(=S)/N=c1\ss/c(=N/C(=S)N(C)C)n1-c1ccc([N+](=O)[O-])cc1
- EC50: > 200 µM
- IC50: 151 µM

Compound: O=C(CN1CCOCC1)c1ccc2c(c1)oc(=O)n2CCN1CCCC1
- EC50: > 200 µM
- IC50: 95.5 µM

Compound: CC#N.CC#N.COC(=O)[C@H]1COC(=O)[N-]1.COC(=O)[C@H]1COC(=O)[N-]1.COC(=O)[C@H]1COC(=O)[N-]1.COC(=O)[C@H]1COC(=O)[N-]1.[Rh+2].[Rh+2]
- EC50: > 200 µM
- IC50: > 200 µM

Compound: CC1CCC2(CC1)NN=c1s/c(=C\c3ccc(O)cc3)c(=O)n1N2 (centres undefined)
- outcome: inactive

Compound: CCNC(=O)OCc1cnc(C)c(OC(=O)NCC)c1COC(=O)NCC
- EC50: > 200 µM
- IC50: 31.6 µM

Compound: CC(=O)NNc1nc(C)c(C(=O)NNC(=O)C(=O)Nc2c(C)cccc2C(C)C)s1
- EC50: > 60.3 µM
- IC50: 52.5 µM

Compound: OC1CC2C=CCC(C1)C2 (centres undefined)
- outcome: inactive

Compound: COc1ccc(-c2nc3c(=O)n(C)c(=O)n(C)c3nc2-c2ccc(OC)cc2)cc1
- EC50: > 200 µM
- IC50: 195 µM

Compound: CN(C)C(=S)Nc1ccc(Cl)cc1
- EC50: > 200 µM
- IC50: 52.5 µM

Compound: CNC(=O)Nc1ccc(Cl)cn1
- EC50: > 200 µM
- IC50: > 200 µM

Compound: CC(CCc1ccc2c(c1)c(=N)c1ccc(N)cc1n2O)CC(C)(C)C (centres undefined)
- outcome: inactive

Compound: CCOC(=O)C12OC(CCC1=O)C(C(=O)OC)=C2C(=O)OC (centres undefined)
- EC50: > 200 µM
- IC50: > 200 µM

Compound: O=C(NC1CCCCC1)NC12CC3CC(CC(F)(C3)C1)C2
- EC50: > 45.7 µM
- IC50: > 45.7 µM

Compound: CS(=O)(=O)NOCCCCONS(C)(=O)=O
- EC50: > 912 µM
- IC50: > 912 µM

Compound: N#Cc1cc2c(n(C3OC(CO)C(O)C(O)C3O)c1=S)CCCCCC2 (centres undefined)
- EC50: > 200 µM
- IC50: > 200 µM

Compound: CC(=O)OC1C(C)(O)[C@@H]2CC[C@H]3C4(C)CCCC(C)(C)[C@H]4CC[C@]13C2 (some centres undefined)
- EC50: > 50.1 µM
- IC50: > 50.1 µM

Compound: CCOC(=O)/C(=C/n1c(=S)[nH]c2ccc([N+](=O)[O-])cc21)C(=O)c1ccccc1
- EC50: > 200 µM
- IC50: 141 µM

Compound: CC(=O)N(C)SCC(NC(=O)C(Cc1ccccc1)NC(=O)OCc1ccccc1)C(=O)NC(Cc1ccccc1)C(=O)NC(Cc1cn(C=O)c2ccccc12)C(=O)NC(CCCCNC(=O)OCc1ccccc1)C(=O)NC(C(=O)NC(CSN(C)C(C)=O)/C(O)=N\O)C(C)OCc1ccccc1 (centres undefined) (Cbz-F[X3]FW(For)K(Cbz)T(Bn)-X20; configuration not given here)
- outcome: inactive

Compound: Cc1cc2c(cc1Cl)SC(C(=O)c1cccc([N+](=O)[O-])c1)=NS2(=O)=O
- EC50: 120 µM
- IC50: > 200 µM

Compound: N#Cc1c(NC(=O)CN2CCOCC2)c(C(=O)Nc2ccccc2)n2c1CCCC2
- EC50: > 200 µM
- IC50: > 200 µM

Compound: NCC1OC(OC2C(CO)OC(OC3C(O)C(N)CC(N)C3OC3OC(CO)C(O)CC3N)C2O)C(N)C(O)C1OC1OC(CO)C(O)C(O)C1O (centres undefined)
- outcome: inactive

Compound: O=C(OCC1OC(OC(=O)c2cc(O)c(O)c(OC(=O)c3cc(O)c(O)c(O)c3)c2)C(OC(=O)c2cc(O)c(O)c(OC(=O)c3cc(O)c(O)c(O)c3)c2)C(OC(=O)c2cc(O)c(O)c(OC(=O)c3cc(O)c(O)c(O)c3)c2)C1OC(=O)c1cc(O)c(O)c(OC(=O)c2cc(O)c(O)c(O)c2)c1)c1cc(O)c(O)c(OC(=O)c2cc(O)c(O)c(O)c2)c1 (centres undefined)
- EC50: > 60.3 µM
- IC50: 6.76 µM

Compound: CC1CN2COC(=S)SSSSC(=S)OCN3CC(C)N(COC(=S)SSSSC(=S)OCN1CC2C)CC3C (centres undefined)
- EC50: > 100 µM
- IC50: 12 µM

Compound: COC(=O)C1CCC(=O)N1C(c1ccc2c(c1)OCO2)c1ccc2c(c1)OCO2 (centres undefined)
- EC50: > 200 µM
- IC50: 148 µM

Compound: CCN(CC)CCCNc1cnnc2cc(Cl)ccc12
- EC50: > 363 µM
- IC50: 83.2 µM
